Experimental data reported in patent US20130023491A1, “BETA-CELL REPLICATION PROMOTING COMPOUNDS AND METHODS OF THEIR USE” (President and Fellows of Harvard College, priority 2009, published 2013).

What was measured:
β-cells [1] = experiment: quantification of β-cell number (PDX-1+ cell count); format: cell-based, rat; conditions: day 6 (144 h), 5-IT 2 μM, 15 mM glucose; control wells 20%
Description: To quantify the number of β-cells at 0 h, 96 h and 144 h of culture, cells were plated in 96-well plates as above in the presence of vehicle only or 5-IT and 15 mM glucose; final DMSO dilution was 1:1000 in all wells. Time Oh was after cells had been allowed 48 h to adhere. Each condition was represented by 16 separate wells per plate to accommodate small fluctuations in plating density. Media changes were performed every 48 h. Cells were fixed at the appropriate time point and stored to be stained simultaneously for PDX-1. Automated cell counting was performed using the Cellomics ArrayScanVTI which identified PDX-1^+ cells.

β-cells [2] = experiment: β-cell replication by phosphohistone-H3 (PH3) and PDX-1 co-expression; format: cell-based, rat; conditions: A10 2 μM, B8 15 μM
Description: Rat islets were isolated as previously described in Gotoh M, Maki T, Kiyoizumi T, Satomi S, Monaco A P: An improved method for isolation of mouse pancreatic islets. Transplantation 40:437-438, 1985, contents of which are herein incorporated by reference in their entirety. Isolated islets were cultured overnight in a tissue culture incubator. The following morning, islets were trypsinized into cellular clusters of 1-3 cells, re-suspended in islet media (Mediatech 99-786-CV; 10% FBS serum (Valley Biomedial BS3033); 8.3 mM Glucose (Sigma G7528); 1× Penicillin/Streptomycin (Invitrogen 15070-063); 1× Glutamax (Invitrogen 35050-079)) and plated into the wells of a 96-well plate (Sigma CLS3904) that had been coated with 804G (a rat bladder carcinoma cell line) conditioned media. The cellular plating density was 60 k cells/well and greater than 95% viability was confirmed at the time of plating. The islet cells were allowed 48-hours to adhere at which time the media was changed (Mediatech 99-786-CV 2% serum, 5 mM glucose, 1× pen/strep, 1× glutamax) and the cells were treated with the test compounds. For screening, compounds were tested at 1 uM concentration in duplicate. After 24-hours of compound treatment, cells were fixed with fresh 4% PFA (Electron Microscopy Services 15710) for 20 minutes and washed with PBS (VWR 45000-446). […]

## Nc1ncnc2c1c(I)cn2[C@@H]1O[C@H](CO)[C@@H](O)[C@H]1O [A10, 5-iodotubercidin]
β-cells [1]
  increase in number of β-cells compared to time 0: 40%
Murine hepatocytes
  tolerability by cultured hepatocytes: not well tolerated
β-cells [2]
  ratio of PH3 over PDX-1 relative to control DMSO treatment: increased
